Experimental data reported in US20240270821A1, “GIP/GLP1/GCG TRI-RECEPTOR AGONISTS AND USES THEREOF” (priority 2023, published 2024).
Read-outs that look alike come from different tables or passages of the source. Starred links: 1 amine or outer side, 2 acyl side, 3 side chain; linkers in the order of their positions; H or OH if unused. Non-standard residues stand in square brackets, D forms with d. Residues, ends and D or L forms follow the SMILES beside them. Groups on a side chain read outwards from the residue. No end group written: not given here. *: point of attachment. C20 diacid = O=C(O)CCCCCCCCCCCCCCCCCCC(=O)*; C18 diacid = O=C(O)CCCCCCCCCCCCCCCCC(=O)*; Phe(4-CN) = N#Cc1ccc(C[C@H](N)C(=O)O)cc1; αMePhe(2-F) = C[C@](N)(Cc1ccccc1F)C(=O)O; γGlu = O=C(O)[C@H](CCC(=O)[*:2])N[*:1]; αMe4Pal = C[C@](N)(Cc1ccncc1)C(=O)O; αMeY = C[C@](N)(Cc1ccc(O)cc1)C(=O)O; αMeF = C[C@](N)(Cc1ccccc1)C(=O)O; 4Pal = N[C@@H](Cc1ccncc1)C(=O)O; αMeL = CC(C)C[C@](C)(N)C(=O)O; αMeS = C[C@](N)(CO)C(=O)O; Orn = NCCC[C@H](N)C(=O)O; AEEA = NCCOCCOCC(=O)O; Aib = CC(C)(N)C(=O)O

Experiments:
Assay type in all cases: cell-based
[1] = biological target: T1, hGIPR (Homo sapiens, UniProt P48546); assay: Functional cAMP activity in the presence of 1% HSA; settings: read-out: cAMP Rel EC50, hGIPR
T1 sequence (P48546 22-466): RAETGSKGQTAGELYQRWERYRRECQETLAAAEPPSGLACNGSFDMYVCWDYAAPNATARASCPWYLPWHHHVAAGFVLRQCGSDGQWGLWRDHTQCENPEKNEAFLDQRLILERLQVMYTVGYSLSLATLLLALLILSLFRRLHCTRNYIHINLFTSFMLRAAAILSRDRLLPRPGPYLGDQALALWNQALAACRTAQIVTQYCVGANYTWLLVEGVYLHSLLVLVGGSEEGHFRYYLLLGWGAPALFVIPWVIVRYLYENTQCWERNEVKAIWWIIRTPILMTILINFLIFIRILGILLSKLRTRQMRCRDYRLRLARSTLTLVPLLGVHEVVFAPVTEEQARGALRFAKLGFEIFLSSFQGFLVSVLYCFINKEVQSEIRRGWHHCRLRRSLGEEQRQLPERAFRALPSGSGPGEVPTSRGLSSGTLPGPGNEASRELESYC

[2] = biological target: T2, hGLP-1R (Homo sapiens, UniProt P43220); assay: Functional cAMP activation in the presence of 0.1% casein (no HSA); settings: read-out: Relative cAMP EC50, hGLP-1R;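 note: intracellular cAMP rise after 30 min at 37 °C read by HTRF, normalized between buffer only (0%) and maximal control ligand (100%), four-parameter variable-slope fit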
[3] = biological target: human GcgR (Homo sapiens, UniProt P47871); assay: Functional cAMP activity in the presence of 1% HSA; settings: read-out: cAMP Rel EC50, hGcgR
[4] = biological target: T2, hGLP-1R; assay: Functional cAMP activity in the presence of 1% HSA; settings: read-out: cAMP Rel EC50, hGLP-1R
[5] = biological target: hGcgR (Homo sapiens, UniProt P47871); assay: Functional cAMP activation in the presence of 0.1% casein (no HSA); settings: read-out: Relative cAMP EC50, hGcgR;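 note: intracellular cAMP rise after 30 min at 37 °C, read by HTRF against a cAMP standard curve, scaled from buffer only (0%) to maximal control ligand response (100%)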
[6] = biological target: T1, hGIPR; assay: as above; settings: read-out: Relative cAMP EC50, hGIPR
[7] = in the presence of 0.1% casein (no HSA), geometric mean
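Throughout, for Relative cAMP EC50, hGIPR: intracellular cAMP rise after 30 min at 37 °C read by HTRF against a standard curve, scaled between buffer alone (0%) and top control ligand concentration (100%), four-parameter fit.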

T2 sequence (P43220 24-463): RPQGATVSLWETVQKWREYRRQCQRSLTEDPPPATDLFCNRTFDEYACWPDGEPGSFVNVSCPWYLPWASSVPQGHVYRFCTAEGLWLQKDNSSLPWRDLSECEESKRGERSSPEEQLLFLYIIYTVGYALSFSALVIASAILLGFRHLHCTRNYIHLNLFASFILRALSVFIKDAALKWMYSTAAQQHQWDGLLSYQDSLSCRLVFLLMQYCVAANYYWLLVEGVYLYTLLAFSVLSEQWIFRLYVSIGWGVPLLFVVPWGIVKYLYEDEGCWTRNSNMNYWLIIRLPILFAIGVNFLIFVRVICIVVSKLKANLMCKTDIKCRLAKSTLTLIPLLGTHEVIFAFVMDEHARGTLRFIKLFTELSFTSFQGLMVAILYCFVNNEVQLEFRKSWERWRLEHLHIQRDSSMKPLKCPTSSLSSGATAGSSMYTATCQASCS
human GcgR, sequence (P47871 26-477): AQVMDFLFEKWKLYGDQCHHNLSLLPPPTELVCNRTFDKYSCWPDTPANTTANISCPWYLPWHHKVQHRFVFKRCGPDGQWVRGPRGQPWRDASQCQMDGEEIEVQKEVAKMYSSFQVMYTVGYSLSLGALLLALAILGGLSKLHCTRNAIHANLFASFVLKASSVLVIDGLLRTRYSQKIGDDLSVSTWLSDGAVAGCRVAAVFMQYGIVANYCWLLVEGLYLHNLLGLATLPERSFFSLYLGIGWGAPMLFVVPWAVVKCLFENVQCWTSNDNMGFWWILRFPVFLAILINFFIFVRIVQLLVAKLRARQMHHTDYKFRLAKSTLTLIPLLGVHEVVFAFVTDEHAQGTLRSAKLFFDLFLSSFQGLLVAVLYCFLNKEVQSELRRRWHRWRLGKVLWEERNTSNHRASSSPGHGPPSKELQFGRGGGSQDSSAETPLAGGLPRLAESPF
hGcgR, sequence (P47871 26-477): as above

Row | Molecule | EC50 [1] | EC50 [2] | EC50 [3] | EC50 [4] | EC50 [5] | EC50 [6] | EC50 [2, 7] | EC50 [5, 7] | EC50 [6, 7]
1 | H-Y[Aib]QGT[αMePhe(2-F)]TSD[4Pal][αMeS]I[αMeL]LD[Orn]K([γGlu-γGlu-C18 diacid])AQ[Aib]NFI[dE][αMeY]LIEGGPSSGEPEPSEG-NH2 [Example 473] | 1.11 nM | 0.173 nM | 311 nM | 11.4 nM | 2.72 nM | 0.0101 nM | – | – | –
2 | H-Y[Aib]QGTFTSD[4Pal]SQ[αMeL]LDKK([AEEA-γGlu-C18 diacid])AQ[αMe4Pal]AFIEWLIEGGPSSGAPPPSGT-NH2 [Example 831] | 38.2 nM | – | 1450 nM | 237 nM | – | – | 0.672 nM | 4.63 nM | 0.604 nM
3 | H-Y[Aib]QGT[αMePhe(2-F)]TSD[4Pal][αMeS]I[αMeL]LD[Orn]K([AEEA-γGlu-C18 diacid])AQ[αMe4Pal]EFI[dE][αMeY]LVEGGPSSGEPPPEGE-NH2 [Example 1159] | 1.29 nM | – | 238 nM | 64.1 nM | – | – | 0.45 nM | 1.86 nM | 0.0118 nM
4 | H-Y[Aib]QGT[αMePhe(2-F)]TSD[4Pal][αMeS]I[αMeL]LD[Orn]K([γGlu-γGlu-C18 diacid])AQ[Aib][Orn]FI[dE][αMeY]LSEGGPSSGEPPPSGTEEE-NH2 [Example 562] | 10.2 nM | 1.67 nM | 427 nM | 89.5 nM | 6 nM | 0.284 nM | – | – | –
5 | Y[Aib]QGTFTSD[4Pal]SQ[αMeL]LD[Orn]K([γGlu-γGlu-C18 diacid])AQ[αMe4Pal]AFIEYLIAGGPSSGAPPPSGSEE-NH2 [Example 1031] | 17.3 nM | – | 1200 nM | 152 nM | – | – | 1.15 nM | 6.98 nM | 0.146 nM
6 | Y[Aib]QGT[αMePhe(2-F)]TSD[4Pal][αMeS]I[αMeL]LD[Orn]K([γGlu-γGlu-C18 diacid])AQ[Aib][Orn]FI[dE][αMeY]LQEGGPSSGEPPPSGTE-NH2 [Example 504] | 1.8 nM | 0.253 nM | 162 nM | 16.5 nM | 2.83 nM | 0.0364 nM | – | – | –
7 | H-Y[Aib]QGT[αMePhe(2-F)]TSD[4Pal][αMeS]I[αMeL]LD[Orn]K([AEEA-γGlu-C18 diacid])AA[Aib]EFI[dE][αMeY]LIEGGPSSGAPPPSG[dE]-NH2 [Example 721] | 1.19 nM | 0.233 nM | 183 nM | 27.1 nM | 1.78 nM | 0.00774 nM | – | – | –
8 | H-Y[Aib]QGTFTSDYSK[αMeL]LDKK([AEEA-γGlu-C20 diacid])AQQAFIEYLLAGGPSSGEPPPSGE-NH2 [Example 344] | 70.7 nM | – | 1440 nM | 523 nM | – | – | 2.56 nM | 9.05 nM | 0.406 nM
9 | H-Y[Aib]QGTFTSD[4Pal][αMeS]Q[αMeL]LD[Orn]K([dE-γGlu-C18 diacid])AQ[αMe4Pal]QFIE[αMeY]LIA[Aib]GPSSGAPPPSGGGE-NH2 [Example 1185] | 2.31 nM | – | 206 nM | 66.1 nM | – | – | 0.762 nM | 1.64 nM | 0.0266 nM
10 | H-Y[Aib]QGTFTSD[4Pal]S[Orn][αMeL]LDKK([γGlu-AEEA-γGlu-C18 diacid])AQ[αMe4Pal]AFIEYLIE[Aib]GPSSGAPPPSGS-NH2 [Example 868] | 17.7 nM | – | 622 nM | 822 nM | – | – | 5.82 nM | 7.4 nM | 0.208 nM
11 | H-Y[Aib]QGT[αMePhe(2-F)]TSD[4Pal][αMeS]I[αMeL]LD[Orn]K([AEEA-γGlu-C18 diacid])AQ[Aib][Orn]FIEYLIEAGPSSGEPPPEEG-NH2 [Example 484] | 1.59 nM | 0.201 nM | 204 nM | 16 nM | 3.99 nM | 0.0152 nM | – | – | –
12 | H-Y[Aib]QGT[αMePhe(2-F)]TSD[4Pal][αMeS]I[αMeL]LD[Orn]K([AEEA-γGlu-C18 diacid])AQ[αMe4Pal]EFI[dE][αMeY]LIEGGPSSGAPPPTGE-NH2 [Example 1142] | 0.748 nM | – | 203 nM | 38 nM | – | – | 0.329 nM | 1.34 nM | 0.00706 nM
13 | H-Y[Aib]QGTFTSD[4Pal]SK[αMeL]LDKK([γGlu-γGlu-C18 diacid])AQ[Aib]AFIEYLIE[Aib]GPSSGAPPPSGSEE-NH2 [Example 905] | 10.4 nM | – | 1390 nM | 215 nM | – | – | 2.52 nM | 12.3 nM | 0.217 nM
14 | H-Y[Aib]QGTFTSD[Phe(4-CN)]S[Orn][αMeL]LDKK([AEEA-γGlu-C18 diacid])AQ[Aib]AFIEYLLE[Aib]GPSSGAPPPSGS-NH2 [Example 191] | 47.4 nM | – | 344 nM | 230 nM | – | – | 2.48 nM | 2.11 nM | 0.422 nM
15 | H-Y[Aib]QGTFTSD[4Pal]S[Orn][αMeL]LDKK([AEEA-γGlu-γGlu-C18 diacid])AQ[αMe4Pal]AFIEYLIE[Aib]GPSSGAPPPSGS-NH2 [Example 867] | 16.2 nM | – | 242 nM | 474 nM | – | – | 7.38 nM | 2.47 nM | 0.216 nM
16 | H-Y[Aib]QGT[αMePhe(2-F)]TSD[4Pal][αMeS]ILLD[Orn]K([γGlu-γGlu-C18 diacid])AQ[Aib][Orn]FI[dE]YLIEGGPSSGEPPPSGTEE-NH2 [Example 576] | 8.12 nM | 0.528 nM | 646 nM | 56.8 nM | 6.37 nM | 0.0723 nM | – | – | –
17 | CC[C@H](C)[C@H](NC(=O)[C@H](Cc1ccccc1)NC(=O)[C@H](C)NC(=O)C(C)(C)NC(=O)[C@H](CCC(N)=O)NC(=O)[C@H](C)NC(=O)[C@H](CCCCNC(=O)COCCOCCNC(=O)CC[C@H](NC(=O)CCCCCCCCCCCCCCCCC(=O)O)C(=O)O)NC(=O)[C@H](CCCN)NC(=O)[C@H](CC(=O)O)NC(=O)[C@H](CC(C)C)NC(=O)[C@](C)(CC(C)C)NC(=O)[C@@H](NC(=O)[C@H](CO)NC(=O)[C@H](Cc1ccc(O)cc1)NC(=O)[C@H](CC(=O)O)NC(=O)[C@H](CO)NC(=O)[C@@H](NC(=O)[C@](C)(Cc1ccccc1)NC(=O)[C@@H](NC(=O)CNC(=O)[C@H](CCC(N)=O)NC(=O)C(C)(C)NC(=O)[C@@H](N)Cc1ccc(O)cc1)[C@@H](C)O)[C@@H](C)O)[C@@H](C)CC)C(=O)N[C@@H](CCC(=O)O)C(=O)N[C@@H](Cc1ccc(O)cc1)C(=O)N[C@@H](CC(C)C)C(=O)N[C@@H](CCC(=O)O)C(=O)N[C@@H](CCC(=O)O)C(=O)NCC(=O)NCC(=O)N1CCC[C@H]1C(=O)N[C@@H](CO)C(=O)N[C@@H](CO)C(=O)NCC(=O)N[C@@H](C)C(=O)N1CCC[C@H]1C(=O)N1CCC[C@H]1C(=O)N1CCC[C@H]1C(=O)N[C@@H](CCC(=O)O)C(N)=O [Example 397] (H-Y[Aib]QGT[αMeF]TSDYSI[αMeL]LD[Orn]K([AEEA-γGlu-C18 diacid])AQ[Aib]AFIEYLEEGGPSSGAPPPE-NH2) | 10.1 nM | 0.2 nM | 1110 nM | 34.9 nM | 5.22 nM | 0.0247 nM | – | – | –
18 | H-Y[Aib]QGTFTSD[4Pal]S[Orn][αMeL]LDKK([γGlu-γGlu-C18 diacid])AQ[αMe4Pal]AFIEYLIAGGPSSGAPPPSGSE-NH2 [Example 1009] | 9.72 nM | – | 268 nM | 174 nM | – | – | 2.1 nM | 4.21 nM | 0.13 nM
19 | H-Y[Aib]QGTFTSD[4Pal]SQ[αMeL]LD[Orn]K([AEEA-γGlu-C18 diacid])AQ[αMe4Pal]QFIE[αMeY]LIEGGPSSGAPPPSGSEE-NH2 [Example 1045] | 107 nM | – | 1540 nM | 276 nM | – | – | 1.51 nM | 7.35 nM | 0.781 nM
